“Also recorded” adds a separate entry of the source. Where two headings read alike, the source gives them in different places.
Assays:
[1] = tested on: spasms induced by tetracor; experiment: spasmolytic effect on spasms induced by tetracor; format: in vivo
From the text: (§1) The pharmacological activity of 3-amino-4-ethylthio-quinoline is substantiated by the following tests. As test compound 3-amino-4-ethylthio-quinoline-hydrochloride (referred to further as "Compound A") is used.

rats [2] = experiment: conflict test: anxiolytic (punished) and sedative (unpunished) effect on water consumption; format: in vivo, Male CFY rats; settings: for water uptake, without electric current / water uptake, with electric current: 0.5 hour; for minimal effective dose: Rattus norvegicus, sc, s.c.
Method: as §1
Anxiolytic and sedative effects are studied according to the following conflict test. […] On the other hand, sedative effect can be observed but in a dose of 25 mg/kg. Thus the ratio of the anxiolytic and sedative doses amounts to 25,000: 2.5=10,000. The same value of chlordiazepoxide is 10:0.1=100. It appears that in the case of Compound A the dissociation between the sedative and anxiolytic doses is extremely high.
The essential strategy for measuring the anti-anxiety effect of a drug is to check its activity in a conflict situation. We elicit a rewarded response, then suppress that response by punishing it when it occurs and the anti-anxiety effect is measured by the drug-induced increase in punished responding, whereas the sedative effect is measured by the drug-induced decrease of unpunished responding.
A rat, deprived of food for 96 hours and supplied with water ad libitum, drinks about 7 ml water during the 4th day of food deprivation, but needs 35 ml water daily when supplied with dry food [for review see Knoll, J. J., Neural Transm. 59, 163-194 (1984)]. This means that when we circuit the drinking tube and the grid floor of the cage and the rat is regularly shocked by trying to drink, the very hungry animal, which cannot eat without drinking, is maximally forced to overcome the hindrance. This is a sensitive test to check the anti-anxiety effect of a compound.
Male CFY rats, weighing 230-250 g, fed with standard food pellets and supplied with tap water ad libitum, were kept under controlled standard environmental conditions (room temperature between 22°-24° C.) in groups of ten for two weeks until used in the experiment. The rats kept in single cages during starvation were deprived of food for 96 hours and supplied with tap water ad libitum before the experiment.
Another aspect of the selection of the animals for the experiment was their visible physical fitness and normal activity after starvation. Less than 10 percent of the rats were excluded from the experiment because of insufficient physical fitness.
A clear Plexiglass box (39×27×12 cm) with a stainless-steel grid floor supplied with a tray for the food pellets and with a drinking tube was used for the experiment. The grid floor, the drinking tube and an electric stimulator (Grass S48) were connected and electric shocks in this circuit were delivered for 10 s duration with 20 s intervals. The parameters of the current (100V; 25 ohm; 7.5 ms; 5 Hz) were empirically selected using those electric shocks which inhibited the water consumption of the very hungry rats to one third of the control (unpunished) level.
The rats spend one hour in the apparatus after 96 hours of food deprivation. The very hungry rats eat 5-6 g of food pellets during the first hour of the feeding period after the long starvation. […] In the punished situation the consumption was reduced to less than 3 ml.
The drugs were administered parenterally in doses of 0.5 ml/100 g body weight. We refrained from the oral administration of the compounds because of the long term food deprivation.

inactine narcosis time = experiment: narcosis potentiating effect, inactine narcosis; format: in vivo, rats
From the text: as §1
(§2) The narcosis potentiating effect of Compound A (on rats) is very strong if inactine is used.

[3] = tested on: hexobarbital narcosis time; experiment: narcosis potentiating effect, hexobarbital narcosis; format: in vivo, rats; settings: compared with inactine
From the text: as §1, §2

spontaneous motility = experiment: spontaneous motility; format: in vivo; settings: rats
From the text: as §1

benzodiazepine receptors = experiment: displacement of diazepame from benzodiazepine receptors; format: binding
[4] = tested on: unconditioned avoidance reflex; experiment: modified jumping test; format: in vivo; settings: 50 and 100 mg p.o.
From the text: as §1

acute toxicity (LD50) = settings: rat, in vivo, rats
From the text: as §1

[5] = tested on: two-way conditioned avoidance reflex; experiment: shuttle box (two-way conditioned avoidance reflex); format: in vivo; settings: rats, 100 mg/kg p.o.
From the text: as §1

metabolism = experiment: influence on metabolism; format: in vivo; settings: rats, 100 mg/kg p.o.
From the text: as §1

calypsol narcosis time = experiment: narcosis time of non-barbiturate phenyclidine derivative (calypsol); format: in vivo, rats
[6] = tested on: one-way conditioned avoidance; experiment: one-way conditioned avoidance test (screening test I); format: in vivo; settings: 100 mg/kg p.o.
From the text: as §1

rats [7] = experiment: algolytic test; format: in vivo
From the text: as §1
Compound A is ineffective in the algolytic test (on rats).

"hot-plate" test = format: in vivo
From the text: as §1

With CCSc1c(N)cnc2ccccc12 [3-amino-4-ethylthio-quinoline] as the compound, how does the anticonvulsive effect ([1]; general statement) read?
The anticonvulsive effect was “devoid of sedative and anticonvulsive effects”.

What about the anxiolytic effect (rats [2]; general statement) of the same compound?
The anxiolytic effect was “particularly potent anxiolytic; also recorded: highly selective anxiolytic effect”.

And the sedative effect (rats [2]; general statement)?
Its sedative effect is “devoid of sedative”.

What about the narcosis potentiating effect (inactine narcosis time; general statement) of the same compound?
The narcosis potentiating effect was “particularly potent anxiolytic and narcosis potentiating effect”.

For CNC1=Nc2ccc(Cl)cc2C(c2ccccc2)=[N+]([O-])C1 [chlordiazepoxide, reference compound], which “ratio of the anxiolytic and sedative doses” value (rats [2]) is on record?
The value was 100.

What does the source list for CCSc1c(N)cnc2ccccc12.Cl [Compound A, 3-amino-4-ethylthio-quinoline-hydrochloride]?
prolongation of hexobarbital narcosis time [3]: to a much weaker extent; inhibition of spontaneous motility (spontaneous motility; 25 mg/kg): inactive; inhibition of spontaneous motility (spontaneous motility; 50 and 100 mg/kg p.o.): moderately in a dose-independant manner; displacement of diazepame from the benzodiazepine receptors (benzodiazepine receptors): displaces diazepame from the benzodiazepine receptors; spasmolytic effect on spasms induced by tetracor ([1]; 25 and 100 mg/kg p.o.): no spasmolytic effect; water uptake, without electric current (rats [2]; 0.25 mg/kg s.c., 10 animals): 6.1 ± 0.46 mL; water uptake, with electric current (rats [2]; 0.25 mg/kg s.c., 10 animals, p < 0.05): 3.3 ± 0.45 mL; water uptake, without electric current (rats [2]; 5 mg/kg s.c., 10 animals): 7.2 ± 0.37 mL; water uptake, without electric current (rats [2]; 10 mg/kg s.c., 10 animals): 6.9 ± 0.43 mL; water uptake, without electric current (rats [2]; 25 mg/kg s.c., 7 animals, p < 0.01): 3.4 ± 0.60 mL; water uptake, with electric current (rats [2]; 2.5 γ/kg s.c., 10 animals, p < 0.05): 3.4 ± 0.43 mL; water uptake, with electric current (rats [2]; 5 γ/kg s.c., 10 animals, p < 0.001): 4.1 ± 0.66 mL; water uptake, with electric current (rats [2]; 10 γ/kg s.c., 10 animals): 2.7 ± 0.33 mL; water uptake, with electric current (rats [2]; 25 γ/kg s.c., 10 animals): 2.8 ± 0.38 mL; minimal effective dose (rats [2]; with electric current, read-out: dose significantly increasing water consumption punished by trains of electric shock (anxiolytic dose)): 0.0025 mg/kg; minimal effective dose (rats [2]; without electric current, read-out: dose at which sedative effect can be observed): 25 mg/kg; anxiolytic effect (rats [2]; general statement): extremely active anxiolytic agent; ratio of the anxiolytic and sedative doses (rats [2]): 10,000; inhibition of the unconditioned avoidance reflex [4]: does not inhibit; LD50 (acute toxicity (LD50); sc): 320 mg/kg; LD50 (acute toxicity (LD50); oral): 420 mg/kg; inhibition of learning ability [5]: inhibits learning ability on rats significantly; influence on metabolism (metabolism): does not influence metabolism; effect on narcosis time of calypsol (calypsol narcosis time): does not lengthen the narcosis time; inhibiting effect in one-way conditioned avoidance test [6]: very weak inhibiting effect; ED500 (dose which causes a five-fold prolongation of the inactine narcosis time) (inactine narcosis time; p.o., rats): 3.4 mg/kg; narcosis potentiating effect (inactine narcosis time; rats, inactine): very strong; ED500 (dose which causes a five-fold prolongation of the inactine narcosis time) (inactine narcosis time; s.c., rats): 3.5 mg/kg; activity in the algolytic test (rats [7]): ineffective; ED50 ("hot-plate" test; oral): 49 mg/kg; ED50 ("hot-plate" test; sc): 40 mg/kg
